This note sets out measurements from the supplement of paper PMC5579334.

± gives the standard deviation of the averaged measurements.

The subject of assay [1] is STS26T. The assay can be described thus: drug sensitivity score (DSS, CellTiter-Glo viability, 72 h) (DSS (dimensionless)); higher = more sensitive; extreme values may be limits of the assay. The method, boiled down: (§1)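 MPNST cell lines and primary human Schwann cells were seeded at 750–1000 cells per well into 384-well plates preprinted with each compound at five concentrations in 10-fold steps, then incubated 72 h at 37 °C, 5% CO2. CellTiter-Glo ATP luminescence gave viability, scaled between vehicle and positive-control wells, with duplicates averaged where present. Curves were fitted with a four-parameter logistic model. Percent inhibition refers to the top concentration, while drug sensitivity score and relative IC50, censored at the top concentration, come from these fits.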
Background: Cellular ATP, detected with luciferase, serves as a proxy for viable cell number.

Assay [2] concerns HSC2 (primary human Schwann cells). Described as above. An outline of the steps: as §1
The test system of assay [3] is HSC1 (primary human Schwann cells). Described as above. An outline of the steps:
as §1

The test system of assay [4] is ST8814. The assay is described as above. The method, boiled down:
as §1

Assay [5] has as its system S462. The description is as above. The method, boiled down:
as §1

In assay [6] the test system is S1507-2. The assay is described as above. The method, boiled down: as §1
The subject of assay [7] is STS26T. The assay can be described thus: % inhibition of CellTiter-Glo viability at highest tested concentration (72 h), relative to DMSO and benzethonium chloride controls; higher = more inhibition. An outline of the steps: as §1
Assay [8] deals with HSC2 (primary human Schwann cells). The description is as above. The method, boiled down:
as §1

Assay [9] relates to HSC1 (primary human Schwann cells). Described as above. The method, boiled down: as §1
Assay [10] concerns ST8814. The assay is described as above. An outline of the steps:
as §1

Assay [11] deals with S462. Described as above. An outline of the steps:
as §1

For assay [12], the system named is S1507-2. Described as above. An outline of the steps: as §1
In assay [13] the test system is STS26T. The assay can be described thus: drug sensitivity score (DSS, CellTox-Green cytotoxicity, 72 h) (DSS (dimensionless)); higher = more cytotoxic; extreme values may be limits of the assay. The method, boiled down:
(§2)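 For 72 h at 37 °C, MPNST cell lines and primary human Schwann cells were exposed in 384-well plates to five 10-fold compound dilutions. CellTox-Green, added before seeding at a final 1:1000 dilution, gave fluorescence from DNA released by disrupted cells. Signals were scaled to vehicle and positive-control wells, cultures failing plate quality control were left out, and four-parameter logistic fits were applied. Relative IC50 and drug sensitivity score were derived from the fits, with IC50 censored at the top concentration.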

Assay [14] has as its system HSC2 (primary human Schwann cells). The assay is described as above. An outline of the steps: as §2
For assay [15], the system named is HSC1 (primary human Schwann cells). Described as above. The method, boiled down: as §2
The test system of assay [16] is ST8814. The assay is described as above. An outline of the steps: as §2
Assay [17] relates to S1507-2. Described as above. The method, boiled down: as §2
Assay [18] has as its system HS-Sch-2. The assay can be described thus: drug sensitivity score (DSS, CellTiter-Glo viability, 72 h) (DSS (dimensionless)); higher = more sensitive; extreme values may be limits of the assay. An outline of the steps: as §1
Assay [19] deals with HS-PSS. Described as above. The method, boiled down:
as §1

Assay [20] concerns YST-1. Described as above. An outline of the steps: as §1
Assay [21] deals with HS-Sch-2. The assay can be described thus: % inhibition of CellTiter-Glo viability at highest tested concentration (72 h), relative to DMSO and benzethonium chloride controls; higher = more inhibition. The method, boiled down: as §1
For assay [22], the system named is HS-PSS. The assay is described as above. The method, boiled down: as §1
For assay [23], the system named is HS-PSS. The assay can be described thus: drug sensitivity score (DSS, CellTox-Green cytotoxicity, 72 h) (DSS (dimensionless)); higher = more cytotoxic; extreme values may be limits of the assay. The method, boiled down:
as §2

The subject of assay [24] is HS-Sch-2. The assay can be described thus: relative IC50 (inflection point of fitted dose-response curve, CellTiter-Glo viability, 72 h; top asymptote may be below 50% inhibition); higher = less potent. The method, boiled down:
as §1

Assay [25] concerns HS-PSS. Described as above. An outline of the steps: as §1
The test system of assay [26] is YST-1. Described as above. An outline of the steps: as §1
Assay [27] relates to HS-PSS. The assay can be described thus: relative IC50 (inflection point of fitted dose-response curve, CellTox-Green cytotoxicity, 72 h; top asymptote may be below 50%); higher = less potent. The method, boiled down: as §2

Consider `COc1ncc(-c2ccc3nccc(-c4ccnnc4)c3c2)cc1NS(=O)(=O)c1ccc(F)cc1F` (max concentration tested 1000 nM), for which the drug sensitivity score with STS26T [1] was found to be 16.6; in [2] it was 15.8; in assay [3], 16.1; in the assay with ST8814 [4], 12.8; in the assay with S462 [5] it was 10.1 ± 1.8; with S1507-2 [6], 14 ± 0.98. The drug sensitivity score was 0.0475 in the assay with STS26T [13]; 0 in assay [14]; 0 in assay [15]; 4 in the assay on ST8814 [16]; 0.225 ± 0.23 in the assay on S1507-2 [17]. For the same molecule, the “% inhibition” value in the assay with STS26T [7] is 83.4%; in [8], 84.1%; in assay [9], 84.4%; in the assay on ST8814 [10], 90%; in the assay with S462 [11], 75.23 ± 0.42%; in the assay on S1507-2 [12] it was 72.9 ± 5.3%.
As for `Cn1cc(C[C@@H](N)C(=O)O)c2ccccc21` [1-methyl-D-tryptophan aq] (max concentration tested 5000 nM), the drug sensitivity score (in the assay with STS26T [1]; in assay [2]; in [3]; in the assay with ST8814 [4]; in the assay with S462 [5]; in the assay on S1507-2 [6]) was 0 throughout. In addition, the drug sensitivity score with STS26T [13] was found to be 0.0551; in assay [14] it was 0.888; in assay [15], 0; with ST8814 [16] it was 0; in the assay on S1507-2 [17], 0.475 ± 0.58. Moreover, the “% inhibition” value in the assay with STS26T [7] was -5.75%; in assay [8], 1.85%; in [9], 4.52%; in the assay with ST8814 [10] it was -2.14%; with S462 [11], 0.824 ± 5.1%; in the assay on S1507-2 [12], 0.132 ± 6.3%.
With `CS(=O)(=O)N1CCN(Cc2cc3nc(-c4cccc5[nH]ncc45)nc(N4CCOCC4)c3s2)CC1` [Pictilisib] (max concentration tested 10000 nM), the drug sensitivity score in the assay on STS26T [1] turned out to be 13.3; in assay [2] it was 7.76; in the assay with HS-Sch-2 [18] it was 4.35; in the assay with HS-PSS [19], 5.78; in assay [3], 7.89; with ST8814 [4], 9.07. Besides, the drug sensitivity score with S462 [5] turned out to be 6.98 ± 0.18; in the assay on S1507-2 [6], 13.4 ± 2.3; in the assay on YST-1 [20], 14.6; with STS26T [13], 0; in assay [14], 0; in the assay on HS-PSS [23], 0. In addition, the drug sensitivity score came to 0 in assay [15], 1.86 with ST8814 [16] and 0.342 ± 0.48 in the assay on S1507-2 [17]. In addition, the “% inhibition” value in assay [8] was determined as 83.3%; with HS-Sch-2 [21] it was 51%; in the assay with HS-PSS [22], 52.1%; in [9], 78.7%; in the assay on S462 [11], 68.53 ± 0.23%.
With `Cc1ccc(C(=O)Nc2ccc(CN3CCN(C)CC3)c(C(F)(F)F)c2)cc1C#Cc1cnc2cccnn12` [Ponatinib] (max concentration tested 1000 nM), the drug sensitivity score in the assay on STS26T [1] was 3.91; in [2], 6.49; with HS-Sch-2 [18], 5.57; with HS-PSS [19], 2.2; in assay [3], 6.62; in the assay with ST8814 [4], 8.31. In addition, the values for the drug sensitivity score in the assay with S462 [5], with S1507-2 [6] and in the assay on YST-1 [20] were 5.51 ± 0.34, 6.1 ± 0.6 and 4.76, respectively.
For the molecule `CCNC(=O)Nc1ccc(-c2nc3c(c(N4CCOC[C@@H]4C)n2)CCN(C2COC2)C3)cc1` [RG-7603], the “relative IC50” value was 356 nM with HS-Sch-2 [24], 777 nM in the assay on HS-PSS [25], 192 nM in the assay with YST-1 [26] and greater than 2500 nM in the assay with HS-PSS [27].
Take `Nc1cc(F)ccc1NC(=O)/C=C/c1cnn(C/C=C/c2ccccc2)c1` [RGFP966]: the “relative IC50” value in the assay on HS-Sch-2 [24] was 1750 nM; in the assay with HS-PSS [25], 378 nM; with YST-1 [26], 1570 nM; with HS-PSS [27], greater than 10000 nM.
The like results for `C[C@@H]1C[C@H]2O[C@@H]2/C=C\C=C\C(=O)Cc2c(Cl)c(O)cc(O)c2C(=O)O1` [Radicicol] were, in that order, 353 nM, 545 nM, 810 nM and 1140 nM.
Take `CN(C)Cc1ccc(S(=O)(=O)n2ccc(/C=C/C(=O)NO)c2)cc1` [Resminostat]: the “relative IC50” value worked out at 2170 nM with HS-Sch-2 [24], 2180 nM with HS-PSS [25], 578 nM in the assay on YST-1 [26] and 3060 nM in the assay with HS-PSS [27].
On the same counts, the results for `CN(C)C(=O)c1cc2cnc(Nc3ccc(N4CCNCC4)cn3)nc2n1C1CCCC1` [Ribociclib] are 1610 nM, 2030 nM, 1530 nM and greater than 10000 nM.
On the same counts, the results for `COc1cc(OC)c(/C=C/S(=O)(=O)Cc2ccc(OC)c(NCC(=O)O)c2)c(OC)c1` [Rigosertib] are 92.2 nM, 130 nM, 59.2 nM and greater than 10000 nM.
The like results for `C=CC(=O)Nc1cccc(Nc2nc(Nc3ccc(N4CCN(C(C)=O)CC4)cc3OC)ncc2C(F)(F)F)c1` [Rociletinib] were, in that order, 2820 nM, 3100 nM, 1610 nM and 2980 nM.
For `C/C=C1\NC(=O)[C@H]2CSSCC/C=C/[C@H](CC(=O)N[C@H](C(C)C)C(=O)N2)OC(=O)[C@H](C(C)C)NC1=O` [Romidepsin], the “relative IC50” value in the assay with HS-Sch-2 [24] amounted to 2 nM; in the assay on HS-PSS [25] it was 300 nM; in the assay on YST-1 [26], 0.75 nM; with HS-PSS [27], 337 nM.

In general, % inhibition refers to the drop in the measured response relative to a control, in per cent. Usually relative IC50 stands for the concentration at the midpoint between the plateaus of the fitted inhibition curve.
